{
  "source": "ChEMBL document CHEMBL1151413",
  "about": "(J Nat Prod, 1983)",
  "key": {"[1]": {"test_system": "Platelet", "experiment": "Disaggregation activity against arachidonic acid-induced rabbit platelet aggregation at 10 ug/ml relative to arachidonic acid response", "type": "functional, cell-based", "settings": "Oryctolagus cuniculus"}, "[2]": {"test_system": "Ileum", "experiment": "Inhibition of coaxially-induced guinea pig ileum contraction at 10 ug/ml", "type": "functional, tissue-based", "settings": "Cavia porcellus, TDE = time-dependent effect"}, "[3]": {"test_system": "Platelet", "experiment": "Disaggregation activity against ADP-induced rabbit platelet aggregation at 10 ug/ml relative to ADP response", "type": "functional, cell-based", "settings": "Oryctolagus cuniculus"}, "[4]": {"test_system": "Ileum", "experiment": "Inhibition of BaCl2-induced guinea pig ileum contraction at 10 ug/ml after 15 mins", "type": "functional, tissue-based", "settings": "Cavia porcellus"}, "[5]": {"test_system": "Ileum", "experiment": "Inhibition of acetylcholine-induced guinea pig ileum contraction at 5 ug/ml after 15 mins", "type": "functional, tissue-based", "settings": "Cavia porcellus"}, "[6]": {"test_system": "Ileum", "experiment": "Inhibition of acetylcholine-induced guinea pig ileum contraction", "type": "functional, tissue-based", "settings": "Cavia porcellus, TDE = time-dependent effect"}, "[7]": {"test_system": "Platelet", "experiment": "Antiaggregation activity against ADP-induced rabbit platelet aggregation at 10 ug/ml", "type": "functional, cell-based", "settings": "Oryctolagus cuniculus, TDE = time-dependent effect"}, "[8]": {"test_system": "Ileum", "experiment": "Inhibition of acetylcholine-induced guinea pig ileum contraction at 10 ug/ml after 15 mins", "type": "functional, tissue-based", "settings": "Cavia porcellus"}, "[9]": {"test_system": "Ileum", "experiment": "Inhibition of acetylcholine-induced guinea pig ileum contraction assessed as residual activity at 5 ug/ml after 30 to 50 mins relative to control", "type": "functional, Cavia porcellus"}, "[10]": {"test_system": "Ileum", "experiment": "Inhibition of histamine-induced guinea pig ileum contraction", "settings": "Cavia porcellus, read-out: pA2 (converted)"}, "[11]": {"test_system": "Ileum", "experiment": "Inhibition of acetylcholine-induced guinea pig ileum contraction assessed as residual activity at 10 ug/ml after 30 to 50 mins relative to control", "type": "functional, Cavia porcellus"}, "[12]": {"test_system": "Platelet", "experiment": "Antiaggregation activity against arachidonic acid-induced rabbit platelet aggregation at 10 ug/ml", "type": "functional, cell-based", "settings": "Oryctolagus cuniculus, TDE = time-dependent effect"}},
  "note": "Calls of active or inactive are those of the source. The rule behind the calls is not given here.",
  "data": [
    {"smiles": "C=C[C@@]12COC(=O)C(=C)[C@@H]1[C@H]1OC(=O)C(=C)[C@@H]1[C@@H](O)C2", "note": "[VERNOLEPIN]", "values": [
      {"measurement": "Activity", "setting": "[1]", "result": "Active"},
      {"measurement": "Activity", "setting": "[2]", "result": "tde"},
      {"measurement": "Activity", "setting": "[3]", "result": "Active"},
      {"measurement": "Activity", "setting": "[4]", "result": "inactive"},
      {"measurement": "Activity", "setting": "[5]", "result": "inactive"},
      {"measurement": "Activity", "setting": "[6]", "result": "tde"},
      {"measurement": "Activity", "setting": "[7]", "result": "tde"},
      {"measurement": "Activity", "setting": "[8]", "result": "inactive"},
      {"measurement": "Activity", "setting": "[9]", "result": "<40", "unit": "%"},
      {"measurement": "Kb", "setting": "[10]", "result": 2450, "unit": "nM"},
      {"measurement": "Activity", "setting": "[11]", "result": "<20", "unit": "%"},
      {"measurement": "Activity", "setting": "[12]", "result": "tde"}
    ]}
  ]
}
